Data on ten compounds can be found in patent US9642366B2, “Active substance combinations that have nematicidal, insecticidal, and fungicidal properties and are based on trifluorobutenyl compounds” (priority 2003, dated 2017).

Test [1] has as its system Meloidogyne incognita. In words: Meloidogyne test (nematicidal action, gall formation on lettuce roots). The settings on record: single active compound. In kind it is in vivo. From the text: (§1) The expected action for a given combination of two active compounds can be calculated as follows (cf. Colby, S. R., “Calculating Synergistic and Antagonistic Responses of Herbicide Combinations”, Weeds 15 (1967), 20-22):
(§2) If • X is the efficacy or kill rate, expressed as a percentage of the untreated control, when employing active compound A in a concentration of m ppm, • Y is the efficacy or kill rate, expressed as a percentage of the untreated control, when employing active compound B in a concentration of […] and • E is the efficacy or kill rate, expressed as a percentage of the untreated control, when employing active compounds A and B in a concentration of m and n ppm,
(§3) If the actual fungicidal or nematicidal, insecticidal and/or acaricidal action exceeds the calculated value, the action of the combination is superadditive, i.e. a synergistic effect is present. In this case, the actually observed efficacy or kill rate must exceed the value calculated using the above formula for the expected efficacy (E).
Solvent: 7 parts by weight of dimethylformamide
Emulsifier: 2 parts by weight of alkylaryl polyglycol ether
To produce a suitable preparation of active compound, 1 part by weight of active compound is mixed with the stated amounts of solvent and emulsifier, and the concentrate is diluted with water to the desired concentration.
Vessels are filled with sand, solution of active compound, Meloidogyne incognita egg/larvae suspension and lettuce seeds. The lettuce seeds germinate and plants develop. On the roots, galls are formed.
After the desired period of time, the nematicidal action is determined in % by the formation of galls. 100% means that no galls have been found; 0% means that the number of galls on the treated plants corresponds to that of the untreated control. The determined kill rates are inserted into Colby's formula.

Test [2] has as its system Phythium ultimum. In words: Mycelium growth test with Phythium ultimum. The format is cell-based. The settings on record: single active compound.
In test [3] the test system is Rhizoctonia solani. In words: Mycelium growth test with Rhizoctonia solani. The settings on record: single active compound. The format is cell-based.
For test [4], the system named is Phytophthora cactorum. Nature of the test: Mycelium growth test with Phytophthora cactorum. In kind it is cell-based. The settings on record: single active compound.
The test system of test [5] is Plutella xylostella, sensitive strain. In words: Plutella test, sensitive strain (insecticidal action, dipped cabbage leaves). The conditions noted are these: 100 ppm, single active compound. In kind it is in vivo.
Text: as §1, §2, §3
Solvent: 7 parts by weight of dimethylformamide […]
Cabbage leaves (Brassica oleracea) are treated by being dipped into the preparation of active compound of the desired concentration and are populated with caterpillars of the diamondback moth (Plutella xylostella, sensitive strain) while the leaves are still moist. After the desired period of time, the kill in % is determined. […]

Test [6] concerns Fusarium nivale. In words: Mycelium growth test with Fusarium nivale. In kind it is cell-based. The conditions noted are these: 1 ppm in the nutrient medium, single active compound.

Where “and” joins values, the source holds several entries; their conditions need not be identical. Identical values can stand only once.

Regarding `N#Cc1c[nH]cc1-c1cccc2c1OC(F)(F)O2` [fludioxonil], in test [1] (20 ppm), the “Kill rate [%] after 14 days” value worked out at 0%.

Turning to `CC(C)NC(=O)N1CC(=O)N(c2cc(Cl)cc(Cl)c2)C1=O` [iprodione], the “Efficacy [%]” value in test [2] (200 ppm in the nutrient medium) came to 9%.

Regarding `CO/N=C(\C(=O)OC)c1ccccc1CO/N=C(\C)c1cccc(C(F)(F)F)c1` [trifloxystrobin], the “Efficacy [%]” value in test [3] (1 ppm in the nutrient medium) came to 39%; in test [4] (10 ppm in the nutrient medium), 29%. Besides, the “Kill rate [%] after 3 days” value in test [5] is 15%. Besides, the “Kill rate [%] after 14 days” value in test [1] (20 ppm) was 0%.

As for `CO/N=C(/C1=NOCCO1)c1ccccc1Oc1ncnc(Oc2ccccc2Cl)c1F` [fluoxastrobin], the results for the “Efficacy [%]” value in test [3] (1 ppm in the nutrient medium), in test [4] (5 ppm in the nutrient medium) and in test [2] (10 ppm in the nutrient medium) were 39%, 28% and 74%, respectively.

On to `CCCN(CCOc1c(Cl)cc(Cl)cc1Cl)C(=O)n1ccnc1` [prochloraz], for which the “Efficacy [%]” value in test [4] (50 ppm in the nutrient medium) came to 30%.

In the case of `CC(C)(C)C(O)(CCc1ccc(Cl)cc1)Cn1cncn1` (centres unmarked) [tebuconazole], the “Efficacy [%]” value stood at 12% in test [4] (100 ppm in the nutrient medium) and 72% in test [2] (100 ppm in the nutrient medium).

For `O=S(=O)(CCC(F)=C(F)F)c1ncc(Cl)s1` [(IC)], the “Efficacy [%]” value in test [6] was 15%; in test [3] (1 ppm in the nutrient medium), 0%; in test [3] (10 ppm in the nutrient medium) it was 49%; in test [4] (50 ppm in the nutrient medium), 7%; in test [4] (100 ppm in the nutrient medium), 18% and 23%. Also, the “Kill rate [%] after 3 days” value in test [5] was found to be 0%. The “Kill rate [%] after 14 days” value in test [1] (0.8 ppm) turned out to be 50%.

On to tolylfluanid, for which the “Efficacy [%]” value in test [4] (10 ppm in the nutrient medium) is listed as 65%; in test [2] (10 ppm in the nutrient medium), 82%.

For the compound `O=C(Nc1ccccc1)N(Cc1ccc(Cl)cc1)C1CCCC1` [pencycuron], in test [4] (200 ppm in the nutrient medium), the “Efficacy [%]” value stood at 0%.

As to `OC(Cc1ccccc1Cl)(Cn1nc[nH]c1=S)C1(Cl)CC1` (centres unmarked) [prothioconazole], the “Kill rate [%] after 14 days” value in test [1] (20 ppm) worked out at 50%.
